Tests used:
[1] = system: octa-subunit OST complex from pig liver; design: method as in Bause et al. 1995; settings: ref Bause et al. 1995; cited from earlier work
[2] = system: octa-subunit OST complex from yeast; design: method as in Tai and Imperiali 2001; settings: ref Tai and Imperiali 2001; cited from earlier work
TbSTT3A = target: T1, TbSTT3A (Trypanosoma brucei, UniProt Q57W34); test: In vitro glycosylation assay, turnover rate of acceptor peptides (Tricine SDS-PAGE fluorescence); format: biochemical; settings: 50 µM donor, overnight incubation, vast excess substrate
T1 sequence (Q57W34 1-801): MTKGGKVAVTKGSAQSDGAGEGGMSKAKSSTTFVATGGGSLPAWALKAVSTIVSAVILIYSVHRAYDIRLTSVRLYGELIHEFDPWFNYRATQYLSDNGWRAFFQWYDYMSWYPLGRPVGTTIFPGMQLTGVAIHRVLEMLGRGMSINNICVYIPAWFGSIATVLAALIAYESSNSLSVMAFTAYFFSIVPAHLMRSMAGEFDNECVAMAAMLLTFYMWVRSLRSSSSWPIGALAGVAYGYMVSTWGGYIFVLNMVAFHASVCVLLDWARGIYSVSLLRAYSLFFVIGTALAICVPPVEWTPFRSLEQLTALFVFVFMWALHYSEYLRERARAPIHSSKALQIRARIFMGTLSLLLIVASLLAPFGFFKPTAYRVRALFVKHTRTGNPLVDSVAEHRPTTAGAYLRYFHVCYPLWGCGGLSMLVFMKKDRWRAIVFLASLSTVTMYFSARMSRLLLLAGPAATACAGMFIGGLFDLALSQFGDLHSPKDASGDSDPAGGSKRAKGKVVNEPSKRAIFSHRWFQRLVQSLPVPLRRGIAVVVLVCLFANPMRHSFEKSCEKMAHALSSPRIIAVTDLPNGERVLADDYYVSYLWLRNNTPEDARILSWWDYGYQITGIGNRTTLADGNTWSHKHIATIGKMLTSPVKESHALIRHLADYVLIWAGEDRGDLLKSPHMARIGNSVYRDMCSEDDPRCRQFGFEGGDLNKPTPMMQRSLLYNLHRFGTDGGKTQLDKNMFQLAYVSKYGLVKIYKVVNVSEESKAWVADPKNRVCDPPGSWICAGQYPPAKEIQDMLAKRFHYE
Procedure: Fig. 2. Optimization of the acceptor peptide sequence. (A) Synthetic acceptor peptides are shown in single letter code. The acceptor asparagine (zero position of the sequon) is indicated in red. Glycosylation experiments were performed and the fluorescently labeled substrate (G0) and product (G1) were quantified following Tricine SDS-PAGE analysis. (B) Turnover rates after fitting the time points by linear regression using PRISM. Error bars indicate standard error of the fitting. (C) Kinetic analysis of substrate peptides: glycosylation experiments were performed with 20 nM purified TbSTT3A, 50 µM farnesyl-PP-chitobiose, 10 mM MnCl2, 150 mM NaCl, 20 mM Hepes pH 7.5, 0.035% DDM, 0.007% CHS and different concentrations of peptides varying from 2 to 60 µM. Data points reflect the mean of three separate measurements. Error bars indicate standard deviations. Data were fitted by nonlinear regression according to the Michaelis–Menten formula using PRISM. This figure is available in black and white in print and in color at Glycobiology online.
Reaction mixtures contained 20 nM purified TbSTT3A protein, 50µM farnesyl-PP-GlcNAc or farnesyl-PP-chitobiose, 10 mM MnCl2, 150 mM NaCl, 20 mM Hepes pH 7.5, 0.035% DDM, 0.007% CHS and 20 µM of the peptide. Reactions were incubated at 30°C. Samples were taken at different time points and reactions were stopped by the addition of 4X SDS Laemmli buffer. Samples were diluted 200-fold prior to analysis by Tricine SDS-PAGE consisting of a 16% resolving gel with 6 M urea, a 10% spacer gel and a 4% stacking gel ([Schägger 2006]). Fluorescent bands for peptide and glycopeptide were visualized by using a Typhoon Trio Plus imager (GE Healthcare) with excitation set at 488 nm and using a 526 nm SP emission filter. The amount of formed glycopeptide was determined from band intensities of fluorescence gel scans (ImageJ) ([Gerber et al. 2013]). Turnover rate determination was performed by fitting of the data to linear regression using PRISM software.
Supplementary Figure 2: Glycosylation Assays with farnesyl-PP-GlcNAc. In vitro glycosylation experiments were performed with 20nM purified TbStt3A purified protein, 50µM Farnesyl-PP-GlcNAc or Farnesyl-PP-GlcNac2, 10 mM MnCl2, 150 mM NaCl, 20 mM Hepes pH 7.5, 0.035% DDM, 0.007% CHS and 10 µM of the peptide P1.

PglB = PglB (Campylobacter lari, UniProt B9KDD4); test: In vitro substrate test with PglB; format: biochemical; settings: data not shown
bacterial flippase PglK = system: bacterial flippase PglK; design: method as in Perez et al. 2015; settings: in detergent; ref Perez et al. 2015; cited from earlier work
[3] = substrate: CC(=O)NC1C(OC2C(CO)OC(OP(=O)(O)OP(=O)(O)OCCC(C)CCC=C(C)CCC=C(C)CCC=C(C)C)C(NC(C)=O)C2O)OC(CO)C(O)C1O; test: Michaelis-Menten kinetics of the LLO analogs; format: biochemical, Trypanosoma brucei; settings: other: 20 nM TbSTT3A, 10 µM acceptor peptide, varying LLO analog concentration; pH 7.5
Procedure: (§1) Fig. 3. (A) Structure of the LLO analogs synthesized (1a) (S)-Citronellyl-PP-Chitobiose, C10; (1b) farnesyl-PP-chitobiose, C15; (1c) (S)-NerylCitronellyl-PP-chitobiose, C20; (1d) (S)-farnesylCitronellyl-PP-chitobiose, C25. (B) Kinetic analysis of synthetic LLO analogs. Glycosylation experiments were performed with 20 nM purified TbSTT3A, 10 µM […], 10 mM MnCl2, 150 mM NaCl, 20 mM Hepes pH 7.5, 0.035% DDM, 0.007% CHS and different concentrations of synthetic LLO analogs. Data points reflect the mean of 3 separate measurements. Error bars indicate standard deviations. Data were fitted by nonlinear regression according to the Michaelis–Menten formula using PRISM software. This figure is available in black and white in print and in color at Glycobiology online.
(§2) For Michaelis–Menten kinetics of the LLO analogs, reaction mixtures containing 20 nM TbSTT3A protein, 10 µM peptide P11, 10 mM MnCl2, 150 mM NaCl, 20 mM Hepes pH 7.5, 0.035% DDM and 0.007% CHS were incubated with different concentrations of LLO analogs (10–900 µM, for 1a; 2–60 µM, for 1b; 1–50 µM, for 1c and 1–20 µM, for 1d). Samples were taken at different time points and turnover rates of the reactions were determined as before. Data were fitted by nonlinear regression according to the Michaelis–Menten formula using PRISM software.

[4] = substrate: CC(=O)N[C@H]1[C@@H](OP(=O)(O)OP(=O)(O)OC/C=C(\C)CC/C=C(\C)CCC=C(C)C)O[C@H](CO)[C@@H](O[C@@H]2O[C@H](CO)[C@@H](O)[C@H](O)[C@H]2NC(C)=O)[C@@H]1O; test: Michaelis-Menten kinetics of the LLO analogs; format: biochemical, Trypanosoma brucei; settings: other: 20 nM TbSTT3A, 10 µM acceptor peptide, varying LLO analog concentration; pH 7.5
Procedure: as §1, §2

[5] = substrate: CC(=O)N[C@H]1[C@@H](OP(=O)(O)OP(=O)(O)OCC[C@@H](C)CC/C=C(/C)CC/C=C(\C)CC/C=C(\C)CCC=C(C)C)O[C@H](CO)[C@@H](O[C@@H]2O[C@H](CO)[C@@H](O)[C@H](O)[C@H]2NC(C)=O)[C@@H]1O; test: Michaelis-Menten kinetics of the LLO analogs; format: biochemical, Trypanosoma brucei; settings: other: 20 nM TbSTT3A, 10 µM acceptor peptide, varying LLO analog concentration; pH 7.5
Procedure: as §1, §2

[6] = substrate: [H][C@@]1(O[C@H]2[C@H](O)[C@@H](NC(C)=O)[C@@H](OP(=O)(O)OP(=O)(O)OCC[C@@H](C)CCC=C(C)C)O[C@@H]2CO)O[C@H](CO)[C@@H](O)[C@H](O)[C@H]1NC(C)=O; test: Michaelis-Menten kinetics of the LLO analogs; format: biochemical, Trypanosoma brucei; settings: other: 20 nM TbSTT3A, 10 µM acceptor peptide, varying LLO analog concentration; pH 7.5
Procedure: as §1, §2

Chain of PglB (B9KDD4 whole entry): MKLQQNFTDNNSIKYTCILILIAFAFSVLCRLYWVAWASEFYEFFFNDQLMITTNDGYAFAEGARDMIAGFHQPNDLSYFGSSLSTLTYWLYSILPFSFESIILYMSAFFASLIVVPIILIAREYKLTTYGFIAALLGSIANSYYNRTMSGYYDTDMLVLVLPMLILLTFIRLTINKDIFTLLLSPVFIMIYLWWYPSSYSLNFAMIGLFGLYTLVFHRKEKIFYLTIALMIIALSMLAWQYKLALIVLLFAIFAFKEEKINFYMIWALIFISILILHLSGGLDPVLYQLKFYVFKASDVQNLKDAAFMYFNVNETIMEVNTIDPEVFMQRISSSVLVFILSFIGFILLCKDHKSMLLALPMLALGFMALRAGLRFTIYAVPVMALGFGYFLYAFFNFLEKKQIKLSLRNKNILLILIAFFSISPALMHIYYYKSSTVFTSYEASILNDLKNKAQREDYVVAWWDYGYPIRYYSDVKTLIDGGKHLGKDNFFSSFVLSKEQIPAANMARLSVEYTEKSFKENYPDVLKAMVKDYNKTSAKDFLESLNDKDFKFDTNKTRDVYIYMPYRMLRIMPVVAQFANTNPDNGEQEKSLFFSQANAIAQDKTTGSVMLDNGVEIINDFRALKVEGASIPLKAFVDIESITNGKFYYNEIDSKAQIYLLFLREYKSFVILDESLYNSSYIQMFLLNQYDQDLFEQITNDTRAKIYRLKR

Dol-PP-GlcNAc
Recognition as donor substrate in vitro [1]: poor donor | Recognition as donor substrate in vitro [2]: poor donor

CC(=O)NC1C(OP(=O)(O)OP(=O)(O)OCC=C(C)CCC=C(C)CCC=C(C)C)OC(CO)C(O)C1O (stereo not shown) [farnesyl-PP-GlcNAc, reference compound]
Donor substrate for TbSTT3A (glycopeptide product formation) (TbSTT3A): no glycopeptide product was observed | Donor substrate for TbSTT3A (glycopeptide product formation) (TbSTT3A; listed as farnesyl-PP-GlcNac): not recognized as a substrate | In vitro substrate of PglB (PglB): accepted as an in vitro substrate | Effect on ATPase activity of PglK (bacterial flippase PglK): stimulated ATPase activity

B1: TbSTT3A (Trypanosoma brucei brucei TREU927) (protein)
chain: T1 sequence (Q57W34 1-801)
Km [3]: 5.3 ± 0.9 µM | Km [4]: 5.6 ± 0.8 µM | Km [5]: 2.5 ± 0.3 µM | Km [6]: 95 ± 18 µM

From PMC5421464, “Characterization of the single-subunit oligosaccharyltransferase STT3A from Trypanosoma brucei using synthetic peptides and lipid-linked oligosaccharide analogs” (Glycobiology, 2017)
